A word on the IC50: it is the concentration that inhibits the measured activity by half.

The target of one experiment is PI3K (Homo sapiens, UniProt P42336). Briefly: Fluorescence polarization assay for PI3K.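 Also: PI3K kinase reaction on PIP2 with ATP, 30-60 min, product sensed by GST-GRP with red probe in fluorescence polarization (mP), controls without enzyme and at zero time.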 The conditions noted are these: PI3Kα; read-out: PI3Kα IC50. It is filed as biochemical. On the technique in general: Polarisation of emitted light reports the rotation of a fluorescent probe.
For another experiment, the system named is prostate line LNCap. Nature of the experiment: In vitro cell culture growth assay (MTS), LNCap. It is filed as cell-based, human. To be noted: Homo sapiens, LNCaP, 72 h, LNCap cells, three days after drug treatment.
A further experiment concerns breast line MDA468. Nature of the experiment: In vitro cell culture growth assay (MTS), MDA468. To be noted: Homo sapiens, 72 h, MDA468 cells, three days after drug treatment. It is filed as cell-based, human. In short, it runs like this:
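Cells were plated and, one day later, exposed to inhibitors for three days; viable cell density was then measured by metabolic conversion of MTS dye, read as absorbance at 490 nm. Growth is expressed as percent of vehicle-treated control cells on the same plate.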

Chain of PI3K (P42336 whole entry): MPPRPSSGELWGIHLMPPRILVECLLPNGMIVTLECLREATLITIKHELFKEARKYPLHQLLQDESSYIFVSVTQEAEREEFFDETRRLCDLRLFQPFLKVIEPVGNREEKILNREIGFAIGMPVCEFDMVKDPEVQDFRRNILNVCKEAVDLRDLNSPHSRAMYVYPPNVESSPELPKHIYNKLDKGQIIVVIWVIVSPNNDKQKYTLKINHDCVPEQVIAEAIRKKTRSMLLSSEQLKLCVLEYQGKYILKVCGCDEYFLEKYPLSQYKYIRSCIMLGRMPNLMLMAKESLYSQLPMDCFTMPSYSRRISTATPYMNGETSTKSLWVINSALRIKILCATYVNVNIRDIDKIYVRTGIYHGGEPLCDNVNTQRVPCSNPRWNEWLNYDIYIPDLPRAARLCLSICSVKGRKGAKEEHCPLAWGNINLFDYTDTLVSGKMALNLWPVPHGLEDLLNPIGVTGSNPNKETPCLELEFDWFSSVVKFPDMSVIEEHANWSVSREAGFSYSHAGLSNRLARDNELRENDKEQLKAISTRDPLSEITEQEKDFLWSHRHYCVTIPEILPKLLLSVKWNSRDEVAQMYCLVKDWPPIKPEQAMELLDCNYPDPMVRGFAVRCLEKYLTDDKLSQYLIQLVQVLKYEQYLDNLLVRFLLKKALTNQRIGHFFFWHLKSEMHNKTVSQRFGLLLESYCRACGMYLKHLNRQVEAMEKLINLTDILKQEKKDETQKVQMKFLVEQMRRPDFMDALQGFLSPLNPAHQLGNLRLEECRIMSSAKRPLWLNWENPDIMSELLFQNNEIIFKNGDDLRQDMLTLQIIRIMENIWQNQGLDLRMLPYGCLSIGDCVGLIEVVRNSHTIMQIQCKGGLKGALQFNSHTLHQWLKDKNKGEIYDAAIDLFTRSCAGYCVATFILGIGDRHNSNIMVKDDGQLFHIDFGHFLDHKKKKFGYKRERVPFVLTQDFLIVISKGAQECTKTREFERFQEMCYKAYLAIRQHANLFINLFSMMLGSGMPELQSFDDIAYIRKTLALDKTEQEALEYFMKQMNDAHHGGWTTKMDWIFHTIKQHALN
Chain of PI3K (P27986 whole entry partner): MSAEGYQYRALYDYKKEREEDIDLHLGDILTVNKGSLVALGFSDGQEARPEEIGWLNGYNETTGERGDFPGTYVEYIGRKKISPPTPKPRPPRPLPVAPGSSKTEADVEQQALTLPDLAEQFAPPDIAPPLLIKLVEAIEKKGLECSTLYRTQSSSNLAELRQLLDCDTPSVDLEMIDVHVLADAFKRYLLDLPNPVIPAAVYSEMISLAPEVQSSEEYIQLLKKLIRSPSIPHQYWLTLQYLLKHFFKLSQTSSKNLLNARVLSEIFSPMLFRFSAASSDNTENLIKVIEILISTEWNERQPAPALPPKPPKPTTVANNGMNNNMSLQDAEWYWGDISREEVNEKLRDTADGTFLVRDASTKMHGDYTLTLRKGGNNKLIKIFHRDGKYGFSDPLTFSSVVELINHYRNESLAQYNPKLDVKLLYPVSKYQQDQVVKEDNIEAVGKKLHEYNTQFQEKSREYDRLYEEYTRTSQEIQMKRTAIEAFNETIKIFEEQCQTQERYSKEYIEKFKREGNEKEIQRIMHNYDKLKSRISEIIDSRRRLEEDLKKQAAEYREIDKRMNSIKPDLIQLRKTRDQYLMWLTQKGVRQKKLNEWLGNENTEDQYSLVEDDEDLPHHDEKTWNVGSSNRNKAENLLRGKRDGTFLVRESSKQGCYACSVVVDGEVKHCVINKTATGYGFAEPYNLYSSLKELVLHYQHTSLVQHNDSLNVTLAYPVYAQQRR

With `CC(C)C(=O)N1CCC(n2ncc3c(N4CCOCC4)nc(-c4ccc(NC(=O)Nc5ccncc5)cc4)nc32)CC1` [Compound 829, 1-{4-[1-(1-isobutyrylpiperidin-4-yl)-4-morpholin-4-yl-1H-pyrazolo[3,4-d]pyrimidin-6-yl]phenyl}-3-pyridin-4-ylurea], the IC50 at PI3K worked out at 38 nM; in the experiment with prostate line LNCap, 25 nM; with breast line MDA468, 29 nM.
With `CC(C)OC(=O)N1CCC(n2ncc3c(N4CCOCC4)nc(-c4ccc(N)cc4)nc32)CC1` [Compound 830, isopropyl 4-[6-(4-aminophenyl)-4-morpholin-4-yl-1H-pyrazolo[3,4-d]pyrimidin-1-yl]piperidine-1-carboxylate], the concentration for half-maximal inhibition (IC50) is 12000 nM on PI3K, 1800 nM with prostate line LNCap and 16000 nM in the experiment on breast line MDA468.
On to `CNC(=S)Nc1ccc(-c2nc(N3CCOCC3)c3cnn(C4CCN(C(=O)OC(C)C)CC4)c3n2)cc1` [Compound 831, isopropyl 4-[6-(4-{[(methylamino)carbonothioyl]amino}phenyl)-4-morpholin-4-yl-1H-pyrazolo[3,4-d]pyrimidin-1-yl]piperidine-1-carboxylate], for which the results for the IC50 on PI3K, in the experiment with prostate line LNCap and in the experiment on breast line MDA468 were 236 nM, 50 nM and 390 nM, respectively.
Turning to `CN/C(=N\c1ccc(-c2nc(N3CCOCC3)c3cnn(C4CCN(C(=O)OC(C)C)CC4)c3n2)cc1)SC` [Compound 832, isopropyl 4-[6-(4-{[(1E)-(methylamino)(methylthio)methylene]amino}phenyl)-4-morpholin-4-yl-1H-pyrazolo[3,4-d]pyrimidin-1-yl]piperidine-1-carboxylate], the half-inhibitory concentration (IC50) at PI3K turned out to be 8000 nM; in the experiment on prostate line LNCap, 2000 nM; with breast line MDA468 it was 3700 nM.
For `CC(C)OC(=O)N1CCC(n2ncc3c(N4CCOCC4)nc(-c4ccc(NC(=O)NCCO)cc4)nc32)CC1` [Compound 834, isopropyl 4-[6-(4-{[(2-hydroxyethyl)carbamoyl]amino}phenyl)-4-morpholin-4-yl-1H-pyrazolo[3,4-d]pyrimidin-1-yl]piperidine-1-carboxylate], the IC50 on PI3K turned out to be 450 nM; in the experiment with prostate line LNCap it was 220 nM; in the experiment with breast line MDA468 it was 180 nM.
`CC(C)OC(=O)N1CCC(n2ncc3c(N4CCOCC4)nc(-c4ccc(NC(=O)Nc5ccccc5)cc4)nc32)CC1` [Compound 836, isopropyl 4-(6-{4-[(anilinocarbonyl)amino]phenyl}-4-morpholin-4-yl-1H-pyrazolo[3,4-d]pyrimidin-1-yl)piperidine-1-carboxylate]: the IC50 on PI3K is 56 nM; in the experiment on prostate line LNCap it was 58 nM; in the experiment on breast line MDA468 it was 170 nM.
In the case of `CC(C)OC(=O)N1CCC(n2ncc3c(N4CCOCC4)nc(-c4ccc(NC(=O)Nc5ccccn5)cc4)nc32)CC1` [Compound 837, isopropyl 4-(4-morpholin-4-yl-6-{4-[(pyridin-2-ylcarbamoyl)amino]phenyl}-1H-pyrazolo[3,4-d]pyrimidin-1-yl)piperidine-1-carboxylate], the values for the IC50 on PI3K, in the experiment with prostate line LNCap and with breast line MDA468 were 12000 nM, 2500 nM and 4600 nM, respectively.
The corresponding values for `CC(C)OC(=O)N1CCC(n2ncc3c(N4CCOCC4)nc(-c4ccc(NC(=O)Nc5cccnc5)cc4)nc32)CC1` [Compound 838, isopropyl 4-(4-morpholin-4-yl-6-{4-[(pyridin-3-ylcarbamoyl)amino]phenyl}-1H-pyrazolo[3,4-d]pyrimidin-1-yl)piperidine-1-carboxylate] are 74 nM, 28 nM and 150 nM.
As for `CC(C)OC(=O)N1CCC(n2ncc3c(N4CCOCC4)nc(-c4ccc(NC(=O)Nc5ccncc5)cc4)nc32)CC1` [Compound 839, isopropyl 4-(4-morpholin-4-yl-6-{4-[(pyridin-4-ylcarbamoyl)amino]phenyl}-1H-pyrazolo[3,4-d]pyrimidin-1-yl)piperidine-1-carboxylate], the results for the IC50 on PI3K, in the experiment with prostate line LNCap and in the experiment with breast line MDA468 were 37 nM, 27 nM and 68 nM, respectively.
The corresponding values for `COC(=O)Nc1ccc(-c2nc(N3CCOC(C)C3)c3cnn(C4CCN(C(=O)OC)CC4)c3n2)cc1` (stereo not drawn) [Compound 840, methyl 4-[6-{4-[(methoxycarbonyl)amino]phenyl}-4-(2-methylmorpholin-4-yl)-1H-pyrazolo[3,4-d]pyrimidin-1-yl]piperidine-1-carboxylate] are 3550 nM, 3200 nM and 10000 nM.
Turning to `CNC(=O)Nc1ccc(-c2nc(N3CCOC(C)C3)c3cnn(C4CCN(C(=O)OC)CC4)c3n2)cc1` (stereo not drawn) [Compound 841, methyl 4-[6-{4-[(methylcarbamoyl)amino]phenyl}-4-(2-methylmorpholin-4-yl)-1H-pyrazolo[3,4-d]pyrimidin-1-yl]piperidine-1-carboxylate], the IC50 came out at 268 nM on PI3K, 150 nM with prostate line LNCap and 500 nM in the experiment on breast line MDA468.
Regarding `CCNC(=O)Nc1ccc(-c2nc(N3CCOC(C)C3)c3cnn(C4CCN(C(=O)OC)CC4)c3n2)cc1` (stereo not drawn) [Compound 842, methyl 4-[6-{4-[(ethylcarbamoyl)amino]phenyl}-4-(2-methylmorpholin-4-yl)-1H-pyrazolo[3,4-d]pyrimidin-1-yl]piperidine-1-carboxylate], the IC50 was found to be 721 nM at PI3K, 70 nM in the experiment on prostate line LNCap and 1000 nM in the experiment with breast line MDA468.
With `COC(=O)N1CCC(n2ncc3c(N4CCOC(C)C4)nc(-c4ccc(NC(=O)NC5CC5)cc4)nc32)CC1` (stereo not drawn) [Compound 843, methyl 4-[6-{4-[(cyclopropylcarbamoyl)amino]phenyl}-4-(2-methylmorpholin-4-yl)-1H-pyrazolo[3,4-d]pyrimidin-1-yl]piperidine-1-carboxylate], the IC50 on PI3K stood at 1380 nM; with prostate line LNCap it was 80 nM; in the experiment with breast line MDA468, 900 nM.
Take `COC(=O)N1CCC(n2ncc3c(N4CCOC(C)C4)nc(-c4ccc(NC(=O)NCCF)cc4)nc32)CC1` (stereo not drawn) [Compound 844, methyl 4-[6-(4-{[(2-fluoroethyl)carbamoyl]amino}phenyl)-4-(2-methylmorpholin-4-yl)-1H-pyrazolo[3,4-d]pyrimidin-1-yl]piperidine-1-carboxylate]: the IC50 on PI3K is 896 nM; in the experiment with prostate line LNCap it was 59 nM; in the experiment on breast line MDA468 it was 700 nM.
With `COC(=O)N1CCC(n2ncc3c(N4CCOC(C)C4)nc(-c4ccc(NC(=O)NCCO)cc4)nc32)CC1` (stereo not drawn) [Compound 845, methyl 4-[6-(4-{[(2-hydroxyethyl)carbamoyl]amino}phenyl)-4-(2-methylmorpholin-4-yl)-1H-pyrazolo[3,4-d]pyrimidin-1-yl]piperidine-1-carboxylate], the IC50 at PI3K was determined as 402 nM; in the experiment on prostate line LNCap, 1100 nM; in the experiment with breast line MDA468, 1600 nM.
As to `COC(=O)N1CCC(n2ncc3c(N4CCOC(C)C4)nc(-c4ccc(NC(=O)Nc5cccnc5)cc4)nc32)CC1` (stereo not drawn) [Compound 846, methyl 4-[4-(2-methylmorpholin-4-yl)-6-{4-[(pyridin-3-ylcarbamoyl)amino]phenyl}-1H-pyrazolo[3,4-d]pyrimidin-1-yl]piperidine-1-carboxylate], the IC50 at PI3K amounted to 81 nM; in the experiment on prostate line LNCap it was 58 nM; with breast line MDA468, 500 nM.

Values taken from patent publication US20080234262A1 (Wyeth, priority 2007, published 2008).
